Experimental data from the CheMixHub viscosity set.

Test: xn = mol fraction of the nth substance listed

CC(C)CCC[C@@H](C)[C@H]1CC[C@H]2[C@@H]3CC=C4C[C@@H](O)CC[C@]4(C)[C@H]3CC[C@]12C + ClC(Cl)(Cl)Cl
viscosity [mPa·s], 101.33 kPa
Details	x1 = 0.0058	x1 = 0.00978	x1 = 0.0123	x1 = 0.01552	x1 = 0.01963	x1 = 0.02491	x1 = 0.03174
298 K	0.983	1.04	1.077	1.136	1.219	1.328	1.491
303 K	0.912	0.962	0.996	1.045	1.12	1.212	1.355
313 K	0.797	0.836	0.858	0.898	0.953	1.024	1.134
323 K	0.705	0.738	0.753	0.785	0.826	0.881	0.96

CCC#N + CN(C)C=O
303.15 K, 101.33 kPa
Details	viscosity [mPa·s]
x1 = 0.1013	0.6977
x1 = 0.1952	0.6428
x1 = 0.3003	0.5983
x1 = 0.4007	0.5648
x1 = 0.4949	0.5385
x1 = 0.5976	0.5113
x1 = 0.6964	0.4839
x1 = 0.7945	0.4533
x1 = 0.9	0.4186

COCCOCCO + CCCO
viscosity [mPa·s], 101 kPa
Details	298.15 K	308.15 K	318.15 K
x1 = 0.0105	1.951	1.522	1.248
x1 = 0.0278	1.961	1.547	1.25
x1 = 0.0448	1.966	1.559	1.259
x1 = 0.0797	1.979	1.566	1.275
x1 = 0.0978	1.998	1.566	1.28
x1 = 0.1316	2.02	1.581	1.296
x1 = 0.1852	2.069	1.613	1.326
x1 = 0.2267	2.104	1.648	1.369
x1 = 0.2853	2.158	1.693	1.399
x1 = 0.3029	2.172	1.713	1.415
x1 = 0.3226	2.2	1.724	1.43
x1 = 0.3872	2.284	1.79	1.486
x1 = 0.439	2.354	1.84	1.532
x1 = 0.4811	2.416	1.888	1.573
x1 = 0.5266	2.42	1.94	1.618
x1 = 0.5519	2.528	1.969	1.643
x1 = 0.6051	2.624	2.037	1.694
x1 = 0.6805	2.748	2.138	1.778
x1 = 0.7239	2.835	2.193	1.832
x1 = 0.7925	2.967	2.29	1.917
x1 = 0.8237	3.034	2.338	1.947
x1 = 0.8896	3.163	2.439	2.027
x1 = 0.9096	3.207	2.464	2.051
x1 = 0.9417	3.265	2.509	2.086
x2 = 0.0151	3.393	2.614	2.14

c1ccc(Oc2ccccc2)cc1 + ClC(Cl)Cl
298.15 K, 101 kPa
Details	viscosity [mPa·s]
x1 = 0.3136	2.22
x1 = 0.5696	1.39
x1 = 0.817	0.83

Cc1ccc(Cl)cc1 + CCOC(=O)c1ccccc1
viscosity [mPa·s], 101 kPa
Details	303.15 K	313.15 K
x2 = 0.0536	0.745	0.65
x2 = 0.1068	0.729	0.632
x2 = 0.1858	0.73	0.629
x2 = 0.2507	0.751	0.644
x2 = 0.3392	0.806	0.686
x2 = 0.4157	0.876	0.739
x2 = 0.4913	0.959	0.801
x2 = 0.592	1.092	0.904
x2 = 0.6657	1.201	0.991
x2 = 0.762	1.359	1.109
x2 = 0.8333	1.484	1.206
x2 = 0.907	–	1.315
x2 = 0.9071	1.623	–
x2 = 0.9524	1.713	1.385

NC(N)=O + CO
viscosity [mPa·s], 101 kPa
Details	293.15 K	298.15 K	303.15 K	308.15 K	313.15 K	318.15 K	323.15 K
x1 = 0.08238	0.924	0.849	0.781	0.721	0.668	0.62	0.576
x1 = 0.09642	–	0.9735	0.8914	0.8215	0.7546	0.6953	–
x1 = 0.1034	1.031	0.942	0.864	0.794	0.732	0.677	0.627
x1 = 0.1289	1.164	1.064	0.975	0.896	0.826	0.764	0.707
x1 = 0.138	–	1.222	1.111	1.019	0.9311	0.8588	–

CC(C)CCC[C@@H](C)[C@H]1CC[C@H]2[C@@H]3CC=C4C[C@@H](O)CC[C@]4(C)[C@H]3CC[C@]12C + ClCCCl
viscosity [mPa·s], 101.33 kPa
Details	298 K	303 K	313 K	323 K
x1 = 0.00307	0.794	0.743	0.659	0.587
x1 = 0.00516	0.812	0.761	0.673	0.599
x1 = 0.00648	0.825	0.772	0.682	0.608
x1 = 0.00816	0.84	0.785	0.692	0.619

Cc1ccccc1C + CCC(C)O
308.15 K, 101 kPa
Details	viscosity [mPa·s]
x2 = 0.0648	0.655
x2 = 0.1275	0.663
x2 = 0.2083	0.681
x2 = 0.3048	0.679
x2 = 0.3787	0.715
x2 = 0.4323	0.742
x2 = 0.5015	0.796
x2 = 0.6005	0.879
x2 = 0.6944	1.048
x2 = 0.7978	1.265
x2 = 0.9485	1.751

COCCOCCO + COC(=O)OC
298.15 K, 101.33 kPa
Details	viscosity [mPa·s]
x1 = 0.0093	0.598
x1 = 0.0245	0.612
x1 = 0.037	0.623
x1 = 0.0694	0.655
x1 = 0.0966	0.685
x1 = 0.1283	0.723
x1 = 0.1675	0.774
x1 = 0.1922	0.806
x1 = 0.2198	0.848
x1 = 0.3005	0.984
x1 = 0.3454	1.069
x1 = 0.3786	1.142
x1 = 0.3835	1.154
x1 = 0.4083	1.214
x1 = 0.4365	1.284
x1 = 0.4695	1.364
x1 = 0.5345	1.538
x1 = 0.584	1.681
x1 = 0.623	1.803
x1 = 0.6563	1.916
x1 = 0.7394	2.226
x1 = 0.7818	2.402
x1 = 0.8262	2.598
x1 = 0.8705	2.802
x1 = 0.8876	2.889
x1 = 0.9134	3.004
x1 = 0.9327	3.098
x1 = 0.9669	3.272
